Patent publication US20230053688A1, “METHODS TO ALTER LATENCY IN EBV+ MALIGNANCIES” (Cornell University, priority 2020, published 2023)
Structures can show the parent of a compound that is named as a salt. Where two headings read alike, the source gives them in different places.

System: LMP1 expression in Kem I cells
Assay: microbe, parasite or virus in culture
Type: cell-based, EBV
Conditions: for fold induction at 2.5 µM / fold induction at 1 µM: human gammaherpesvirus 4, 48 h
[1] = read-out: Average LMP1 Fold Increase, Kem I cells, 2.5 uM, 48 hours, average of replicates 1 and 2
[2] = read-out: Replicate 1-LMP1 Fold Increase, Kem I cells, 2.5 uM, 48 hours, fold change in LMP1 transcript vs vehicle
[3] = read-out: Replicate 2-LMP1 Fold Increase, Kem I cells, 2.5 uM, 48 hours, fold change in LMP1 transcript vs vehicle
[4] = Kem I cells, 2.5 uM, 48 hours, average of replicates 1 and 2
[5] = Kem I cells, 2.5 uM, 48 hours, fold change in LMP1 transcript vs vehicle
[6] = Kem I cells, dose 2.5 uM, 48 hours, LMP1 transcript by in-well qRT-PCR, average of the two replicates
[7] = Kem I cells, dose 2.5 uM, 48 hours, LMP1 transcript by in-well qRT-PCR, screen replicate 1
[8] = Kem I cells, dose 2.5 uM, 48 hours, LMP1 transcript by in-well qRT-PCR, screen replicate 2
[9] = read-out: Average LMP1 Fold Increase, Kem I cells, 1 uM, 48 hours, average of replicates 1 and 2
[10] = read-out: Replicate 1-LMP1 Fold Increase, Kem I cells, 1 uM, 48 hours, fold change in LMP1 transcript vs vehicle
[11] = read-out: Replicate 2-LMP1 Fold Increase, Kem I cells, 1 uM, 48 hours, fold change in LMP1 transcript vs vehicle
[12] = read-out: Average LMP1 Fold Increase, Kem I cells, dose 2.5 uM, 48 hours, LMP1 transcript by in-well qRT-PCR, average of the two replicates
[13] = read-out: Replicate 1-LMP1 Fold Increase, Kem I cells, dose 2.5 uM, 48 hours, LMP1 transcript by in-well qRT-PCR, screen replicate 1
[14] = read-out: Replicate 2-LMP1 Fold Increase, Kem I cells, dose 2.5 uM, 48 hours, LMP1 transcript by in-well qRT-PCR, screen replicate 2

| Molecule | Average LMP1 Fold Increase [4] | Replicate 1-LMP1 Fold Increase [5] | Replicate 2-LMP1 Fold Increase [5] | further results |
| --- | --- | --- | --- | --- |
| C[C@]12C=CC(=O)N[C@@H]1CC[C@@H]1[C@@H]2CC[C@]2(C)[C@@H](C(=O)Nc3cc(C(F)(F)F)ccc3C(F)(F)F)CC[C@@H]12 [Dutasteride] | – | – | – | fold induction at 2.5 µM [1]: 0.39; fold induction at 2.5 µM [2]: 0.38; fold induction at 2.5 µM [3]: 0.41 |
| O=C(Oc1cc(S(=O)(=O)c2ccccc2)ccc1[N+](=O)[O-])c1ccc(Cl)cc1 [BTB06584] | 1.22 | 1.23 | 1.20 | – |
| CN1CCCCC1Cn1cc(C(=O)c2cc([N+](=O)[O-])ccc2I)c2ccccc21 (stereo not drawn) [AM1241] | 0.79 | 1.01 | 0.56 | – |
| NC(=O)c1ccc(-c2nc(-c3ccccn3)c(-c3ccc4c(c3)OCO4)[nH]2)cc1 [SB431542] | 0.71 | 0.82 | 0.61 | – |
| C[C@H](NCc1ccc(OCc2cccc(F)c2)cc1)C(N)=O [Safinamide Mesylate] | – | – | – | fold induction at 2.5 µM [1]: 0.95; fold induction at 2.5 µM [2]: 0.2; fold induction at 2.5 µM [3]: 1.71 |
| CO[C@H]1C[C@@H]2CC[C@@H](C)[C@@](O)(O2)C(=O)C(=O)N2CCCC[C@H]2C(=O)O[C@H]([C@H](C)C[C@@H]2CC[C@@H](OC(=O)C(C)(CO)CO)[C@H](OC)C2)CC(=O)[C@H](C)/C=C(\C)[C@@H](O)[C@@H](OC)C(=O)[C@H](C)C[C@H](C)/C=C/C=C/C=C/1C [Temsirolimus (CCI-779, NSC 683864)] | – | – | – | Average LMP1 Fold Increase [6]: 155.77 fold; Replicate 1-LMP1 Fold Increase [7]: 1.06 fold; Replicate 2-LMP1 Fold Increase [8]: 310.48 fold |
| CC(C)(F)C[C@H](N[C@@H](c1ccc(-c2ccc(S(C)(=O)=O)cc2)cc1)C(F)(F)F)C(=O)NC1(C#N)CC1 [Odanacatib (MK-0822)] | 0.56 | 0.58 | 0.54 | – |
| CC(C)C[C@@H](C(=O)N[C@H](C(=O)OC1CCCC1)c1ccccc1)[C@H](O)C(=O)NO [Tosedostat (CHR2797)] | – | – | – | Average LMP1 Fold Increase [6]: 0.64 fold; Replicate 1-LMP1 Fold Increase [7]: 0.56 fold; Replicate 2-LMP1 Fold Increase [8]: 0.72 fold |
| SNS-314 Mesylate | 0.51 | 0.71 | 0.32 | – |
| N#Cc1c(O)c2c(-c3ccc(-c4ccccc4O)cc3)csc2[nH]c1=O [A-769662] | 0.40 | 0.41 | 0.39 | – |
| CCC(CC)CC1(C(=O)Nc2ccccc2SC(=O)C(C)C)CCCCC1 [Dalcetrapib (JTT-705, RO4607381)] | 0.98 | 0.61 | 1.34 | – |
| O=C(NNc1ccccc1)c1ccncc1 [PluriSln #1 (NSC 14613)] | 1.32 | 1.70 | 0.94 | – |
| CNC(=O)c1ccccc1Nc1nc(Nc2ccc(N3CCOCC3)cc2OC)ncc1Cl [TAE226 (NVP-TAE226)] | – | – | – | Average LMP1 Fold Increase [6]: 1.35 fold; Replicate 1-LMP1 Fold Increase [7]: 1.38 fold; Replicate 2-LMP1 Fold Increase [8]: 1.31 fold |
| CCNC(=O)[C@H]1O[C@@H](n2cnc3c(N)nc(NCCc4ccc(CCC(=O)O)cc4)nc32)[C@H](O)[C@@H]1O [CGS 21680 HCl] | – | – | – | fold induction at 2.5 µM [1]: 0.7; fold induction at 2.5 µM [2]: 0.72; fold induction at 2.5 µM [3]: 0.68 |
| NC(=O)c1cccc(-c2cc(Nc3ccc(OC(F)(F)F)cc3)ncn2)c1 [GNF-2] | 1.06 | 0.21 | 1.91 | – |
| CHIR-98014 | – | – | – | Average LMP1 Fold Increase: 0.67; Replicate 1-LMP1 Fold Increase: 0.81; Replicate 2-LMP1 Fold Increase: 0.54 |
| COc1ccc(CNCc2cccc3ccccc23)cc1.Cl [ML133 HCl] | 0.54 | 0.42 | 0.67 | – |
| CC(C)c1cc(-c2n[nH]c(=O)n2-c2ccc3c(ccn3C)c2)c(O)cc1O [Ganetespib] | – | – | – | fold induction at 1 µM [9]: 23.4; fold induction at 1 µM [10]: 8.07; fold induction at 1 µM [11]: 38.8 |
| Cc1cn(-c2cc(NC(=O)c3ccc(C)c(Nc4nccc(-c5cccnc5)n4)c3)cc(C(F)(F)F)c2)cn1 [Nilotinib (AMN-107)] | 0.27 | 0.20 | 0.33 | – |
| C[C@]12CC[C@@H]3c4ccc(O)cc4C[C@@H](CCCCCCCCC[S+]([O-])CCCC(F)(F)C(F)(F)F)[C@H]3[C@@H]1CC[C@@H]2O (stereo partly drawn) [Fulvestrant] | – | – | – | fold induction at 2.5 µM [1]: 0.17; fold induction at 2.5 µM [2]: 0.16; fold induction at 2.5 µM [3]: 0.18 |

| Molecule | Average LMP1 Fold Increase [4] | Replicate 1-LMP1 Fold Increase [5] | Replicate 2-LMP1 Fold Increase [5] | further results |
| --- | --- | --- | --- | --- |
| O=c1oc2cc(O)ccc2s1 [Tioxolone] | – | – | – | fold induction at 2.5 µM [12]: 0.55; fold induction at 2.5 µM [13]: 0.7; fold induction at 2.5 µM [14]: 0.41 |
| CC1=C(/C=C/C(C)=C/C=C/C(C)=C\C(=O)O)C(C)(C)CCC1 [Isotretinoin] | – | – | – | fold induction at 2.5 µM [1]: 1.76; fold induction at 2.5 µM [2]: 1.42; fold induction at 2.5 µM [3]: 2.1 |
| Cn1c(N2CCCCS2(=O)=O)nc(C(=O)NCc2ccc(F)cc2)c(O)c1=O [BMS-707035] | – | – | – | fold induction at 2.5 µM [1]: 43.1; fold induction at 2.5 µM [2]: 18.2; fold induction at 2.5 µM [3]: 68 |
| CC(C)(C)c1nc(-c2cccc(NS(=O)(=O)c3c(F)cccc3F)c2F)c(-c2ccnc(N)n2)s1 [Dabrafenib (GSK2118436)] | 0.92 | 0.61 | 1.22 | – |
| CC(C)(C)n1nc(-c2ccc(Cl)cc2)c2c(N)ncnc21 [PP2] | 1.01 | 0.73 | 1.28 | – |
| Cc1cc2c(cc1CC(=O)c1sccc1S(=O)(=O)Nc1onc(C)c1Cl)OCO2 [Sitaxentan sodium] | – | – | – | fold induction at 2.5 µM [1]: 0.25; fold induction at 2.5 µM [2]: 0.16; fold induction at 2.5 µM [3]: 0.34 |
| CN1C(=O)C(Cc2c[nH]c3ccccc23)NC1=S (stereo not drawn) [Necrostatin-1] | 1.08 | 0.99 | 1.17 | – |
| CC(C)(C)c1cc(C(C)(C)C)c(NC(=O)c2c[nH]c3ccccc3c2=O)cc1O [Ivacaftor (VX-770)] | 1.35 | 2.22 | 0.49 | – |
| CCOC(=O)C1=C(COCCN)NC(C)=C(C(=O)OC)C1c1ccccc1Cl (stereo not drawn) [Amlodipine] | – | – | – | fold induction at 2.5 µM [1]: 2.06; fold induction at 2.5 µM [2]: 0.51; fold induction at 2.5 µM [3]: 3.61 |
| O=C(c1cncc(Br)c1)N1CCC(N2CCCC2)CC1 [UNC669] | – | – | – | Average LMP1 Fold Increase [6]: 0.50 fold; Replicate 1-LMP1 Fold Increase [7]: 0.75 fold; Replicate 2-LMP1 Fold Increase [8]: 0.25 fold |
| CCOC(=O)N1CCC(=C2c3ccc(Cl)cc3CCc3cccnc32)CC1 [Loratadine] | – | – | – | fold induction at 2.5 µM [1]: 0.28; fold induction at 2.5 µM [2]: 0.24; fold induction at 2.5 µM [3]: 0.32 |
| CCNC(=O)c1noc(-c2cc(C(C)C)c(O)cc2O)c1-c1ccc(CN2CCOCC2)cc1 [AUY922 (NVP-AUY922)] | 1.29 | 1.62 | 0.96 | – |
| O=c1cc(-c2cccc3c2Sc2ccccc2S3)oc(N2CCOCC2)c1 [KU-55933 (ATM Kinase Inhibitor)] | 0.78 | 0.60 | 0.95 | – |
| CCN(c1cc(C#CCN2CCOCC2)cc(C(=O)NCc2c(C)cc(C)[nH]c2=O)c1C)[C@H]1CC[C@H](N(C)CCOC)CC1 [EPZ 011989] | – | – | – | fold induction at 1 µM [9]: 30.5; fold induction at 1 µM [10]: 4.1; fold induction at 1 µM [11]: 56.9 |
| CCC(CC)(NC(=O)C(C)C)C(=O)N[C@@H](CCCN=C(N)N)C(=O)NC1(C(=O)NC(c2ccc(F)cc2)c2ccc(F)cc2)CCCC1 [MM-102] | 0.27 | 0.27 | 0.27 | – |
| CCN(c1cc(-c2ccc(CN3CCOCC3)cc2)cc(C(=O)NCc2c(C)cc(C)[nH]c2=O)c1C)C1CCOCC1 [EPZ 6438] | – | – | – | fold induction at 1 µM [9]: 24.5; fold induction at 1 µM [10]: 2.14; fold induction at 1 µM [11]: 46.9 |
| CNC(=O)[C@H](Cc1ccccc1)NC(=O)[C@H](CC(C)C)[C@H](CSc1cccs1)C(=O)NO [Batimastat (BB-94)] | 0.46 | 0.38 | 0.55 | – |
| CN1C2CCCC1CC(NC(=O)c1nn(C)c3ccccc13)C2 (stereo not drawn) [Granisetron HCl] | – | – | – | fold induction at 2.5 µM [1]: 0.25; fold induction at 2.5 µM [2]: 0.25; fold induction at 2.5 µM [3]: 0.24 |
| CC1=C(C(=O)Nc2cc3cn[nH]c3cc2F)C(c2ccc(C(F)(F)F)cc2)CC(=O)N1 (stereo not drawn) [GSK429286A] | 0.57 | 0.60 | 0.54 | – |
| Cc1cc(OCCCS(C)(=O)=O)cc(C)c1-c1cccc(COc2ccc3c(c2)OC[C@H]3CC(=O)O)c1 [TAK-875] | – | – | – | fold induction at 2.5 µM [12]: 0.57; fold induction at 2.5 µM [13]: 0.55; fold induction at 2.5 µM [14]: 0.59 |
